Where “and” joins values, the source holds several entries; their conditions need not be identical. Identical values can stand only once. One block for each compound: values may come before it.
Test system: 521955-158-R2-J5-PDC complex spheroid viability
Assay: Anticancer human tumor 521955-158-R2-J5-PDC patient-derived pancreatic carcinoma cell line growth inhibition [GQUAD]
Settings: for viability, T/C: stronger effect = lower value
From the text: DNA G-quadruplex Stabilizer Agents in Combinations in Complex Spheroids
A high-throughput screen of multi-cell type tumor spheroids was designed to identify active combinations of DNA G-quadruplex stabilizer agents and targeted small molecules. Complex spheroids include a stromal component modeled by human endothelial cells (HUVEC) and fibroblasts modeled by human mesenchymal stem cells (MSCs). The concentration ranges selected for each drug and investigational agent were based upon clinically achievable concentrations if the clinical Cmax of the agent was known.
Compounds. The drugs and investigational agents: pidnarulex (CX-5461; NSC782164), APTO-253 (NSC789042), BRACO-19 (NSC847499), peposertib (NSC802822), ceralasertib (NSC780249), elimusertib (NSC800525), camonsertib (NSC841442), AZD-1390 (NSC803789), olaparib (NSC753686), talazoparib (NSC767125), ART-558 (NSC835418), sotorasib (NSC818433), MRTX-1133 (NSC836407), SN-38 (NSC673596), topotecan (NSC609699), etoposide (NSC141540), doxorubicin (NSC123127), gemcitabine (NSC613327), 5-fluorouracil (NSC19893), paclitaxel (NSC125973), vemurafenib (NSC761431), panobinostat (NSC761190), R-306465 (JNJ-16241199; NSC773264), adavosertib (NSC754352), TP-3654 (NSC805149), carboplatin (NSC241240), KSQ-4279 (NSC840948), and staurosporine (NSC755774) were obtained from the National Cancer Institute (NCI) Developmental Therapeutics Program Chemical Repository (34). The FDA-approved anticancer drug set is available from the NCI Developmental Therapeutics Program. […] The stock solutions were prepared in dimethyl sulfoxide (DMSO, Sigma-Aldrich, St. Louis, MO, cat. D2650) at 800-fold the tested concentration and stored at -70 degrees C prior to their use. All drugs and investigational agents were tested over a range starting from a high concentration at or near the clinical Cmax and decreasing in half-log increments. If the clinical Cmax for an agent had not been determined, the highest concentration tested was 10 microM.
2.3 Cell Culture. All cells were maintained in an incubator at 37 degrees C and 5% CO2 with 95% humidity. The PDC lines were cultured according to standard operating procedures established by the NCI PDMR. All PDCs were thawed and cultured in Matrigel-coated flasks prepared with a working solution of 1X Ham's F-12 nutrient mix, without supplementation (Invitrogen, cat. 11765054), 100 U/mL penicillin-streptomycin (Invitrogen, cat. 15140122), and 2.5% Matrigel (Corning Inc., cat. 354248) for the first three passages. The 857933-349-R-J2-PDC line was cultured in 6C/Colon 1B media, which includes advanced DMEM/F-12 (Thermo Fisher Scientific, cat. 12634028), 10 mM HEPES (Thermo Fisher Scientific, cat. 15630080), 1X GlutaMAX supplement (Thermo Fisher Scientific, cat. 35050061), 0.1 mg/mL primocin (InvivoGen, cat. ant-pm-2), 10% defined fetal bovine serum, heat inactivated (HyClone Laboratories Inc., cat. SH30070.03HI), 50% L-WRN conditioned media (ATCC, cat. CRL-3276), 1.25 mM N-Acetyl-L-cysteine (Sigma-Aldrich, cat. A9165), 10 mM nicotinamide (Sigma-Aldrich, cat. N0636), 1X B-27 supplement (Thermo Fisher Scientific, cat. 17504044), 1X N-2 supplement (Thermo Fisher Scientific, cat. 17502048), 10 microM Y-27632 dihydrochloride (Tocris Bioscience, cat. 1254), and 50 ng/mL human EGF recombinant protein (Thermo Fisher Scientific, cat. PHG0311). The 485176-168-R4-J1-PDC line was cultured in Panc media, which includes all 6C/Colon 1B media components plus 100 ng/mL human FGF-10 (Thermo Fisher Scientific, cat. 100-26), 500 nM SB-431542 (Selleckchem, cat. S1067), and gastrin (Tocris, cat. 3006).
[…]
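Further: spheroids exposed to agents for one week before reading.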
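Wherever viability, T/C is given: 100% = DMSO vehicle control viability.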

Compound: CC1COCCN1c1cc(-c2ccnn2C)c2ccnc(-c3ccn[nH]3)c2n1 (stereo not given)
- viability, T/C (compound 0.0316 µM): 86% and 82.9% and 82.7%
- viability, T/C (compound 0.1 µM): 13.9% and 30.4% and 13.4%
- viability, T/C (compound 0.316 µM): 10.9% and 17.4% and 9.83%
- viability, T/C (compound 1 µM): 13.5% and 21.3% and 12.2%
- viability, T/C (compound 3.16 µM): 16.9% and 33.8% and 15.8%
- viability, T/C (compound 10 µM): 19.7% and 38.7% and 26.2%
- IC50 (curve of compound): 56.7 nM and 64.6 nM and 55.3 nM

Compound: C=CCn1c(=O)c2cnc(Nc3ccc(N4CCN(C)CC4)cc3)nc2n1-c1cccc(C(C)(C)O)n1 + CN(C)c1ccc(Nc2c3ccc(NC(=O)CCN4CCCC4)cc3nc3cc(NC(=O)CCN4CCCC4)ccc23)cc1
- IC50 (curve of first compound, second compound 0.0316 µM): 189 nM
- IC50 (curve of first compound, second compound 0.1 µM): 208 nM
- IC50 (curve of first compound, second compound 0.316 µM): 188 nM
- IC50 (curve of first compound, second compound 1 µM): 207 nM
- IC50 (curve of first compound, second compound 3.16 µM): 201 nM
- IC50 (curve of first compound, second compound 10 µM): 401 nM
- viability, T/C (second compound 0.0316 µM, first compound 0.0316 µM): 112%
- viability, T/C (second compound 0.0316 µM, first compound 0.1 µM): 76.5%
- viability, T/C (second compound 0.0316 µM, first compound 0.316 µM): 28.2%
- viability, T/C (second compound 0.0316 µM, first compound 1 µM): 16.8%
- viability, T/C (second compound 0.0316 µM, first compound 3.16 µM): 11.2%
- viability, T/C (second compound 0.0316 µM, first compound 10 µM): 13.4%
- viability, T/C (second compound 0.1 µM, first compound 0.0316 µM): 107%
- viability, T/C (second compound 0.1 µM, first compound 0.1 µM): 85.7%
- viability, T/C (second compound 0.1 µM, first compound 0.316 µM): 29.5%
- viability, T/C (second compound 0.1 µM, first compound 1 µM): 15.5%
- viability, T/C (second compound 0.1 µM, first compound 3.16 µM): 14.3%
- viability, T/C (second compound 0.1 µM, first compound 10 µM): 12.2%
- viability, T/C (second compound 0.316 µM, first compound 0.0316 µM): 82.6%
- viability, T/C (second compound 0.316 µM, first compound 0.1 µM): 80.7%
- viability, T/C (second compound 0.316 µM, first compound 0.316 µM): 24.8%
- viability, T/C (second compound 0.316 µM, first compound 1 µM): 11.6%
- viability, T/C (second compound 0.316 µM, first compound 3.16 µM): 14%
- viability, T/C (second compound 0.316 µM, first compound 10 µM): 15.2%
- viability, T/C (second compound 1 µM, first compound 0.0316 µM): 90.5%
- viability, T/C (second compound 1 µM, first compound 0.1 µM): 85.2%
- viability, T/C (second compound 1 µM, first compound 0.316 µM): 29.5%
- viability, T/C (second compound 1 µM, first compound 1 µM): 15.9%
- viability, T/C (second compound 1 µM, first compound 3.16 µM): 13.4%
- viability, T/C (second compound 1 µM, first compound 10 µM): 16.2%
- viability, T/C (second compound 3.16 µM, first compound 0.0316 µM): 84.6%
- viability, T/C (second compound 3.16 µM, first compound 0.1 µM): 74.4%
- viability, T/C (second compound 3.16 µM, first compound 0.316 µM): 33.7%
- viability, T/C (second compound 3.16 µM, first compound 1 µM): 23.3%
- viability, T/C (second compound 3.16 µM, first compound 3.16 µM): 18.6%
- viability, T/C (second compound 3.16 µM, first compound 10 µM): 13.5%
- viability, T/C (second compound 10 µM, first compound 0.0316 µM): 65.1%
- viability, T/C (second compound 10 µM, first compound 0.1 µM): 67.6%
- viability, T/C (second compound 10 µM, first compound 0.316 µM): 53.3%
- viability, T/C (second compound 10 µM, first compound 1 µM): 31.6%
- viability, T/C (second compound 10 µM, first compound 3.16 µM): 7.79%
- viability, T/C (second compound 10 µM, first compound 10 µM): 1.53%

Compound: O=c1[nH]cc(F)c(=O)[nH]1
- viability, T/C (compound 0.0316 µM): 86.1% and 107% and 116%
- viability, T/C (compound 0.1 µM): 86% and 88.3% and 87.4%
- viability, T/C (compound 0.316 µM): 89.2% and 109% and 92.6%
- viability, T/C (compound 1 µM): 80% and 99% and 101%
- viability, T/C (compound 3.16 µM): 47.1% and 45% and 102%
- viability, T/C (compound 10 µM): 20.3% and 18.2% and 54.8%
- IC50 (curve of compound): 2850 nM and 2840 nM and > 10000 nM

Compound: CN(C)c1ccc(Nc2c3ccc(NC(=O)CCN4CCCC4)cc3nc3cc(NC(=O)CCN4CCCC4)ccc23)cc1
- viability, T/C (compound 0.0316 µM): 107% [middle of 12 runs]
- viability, T/C (compound 0.1 µM): 103% [middle of 12 runs]
- viability, T/C (compound 0.316 µM): 98% [middle of 12 runs]
- viability, T/C (compound 1 µM): 89.4% [middle of 12 runs]
- viability, T/C (compound 3.16 µM): 82.5% [middle of 12 runs]
- viability, T/C (compound 10 µM): 72.5% [middle of 12 runs]
- IC50 (compound alone, run of 04/22/2024): > 10000 nM

Continued, in another order:

- IC50 (curve of compound): 838 nM and 501 nM and 307 nM
Compound: O=C(NO)c1cnc(N2CCN(S(=O)(=O)c3ccc4ccccc4c3)CC2)nc1
- viability, T/C (compound 0.0316 µM): 120% and 129% and 128%
- viability, T/C (compound 0.1 µM): 106% and 103% and 98.8%
- viability, T/C (compound 0.316 µM): 97.3% and 66.4% and 48.3%
- viability, T/C (compound 1 µM): 42.6% and 28.9% and 15%
- viability, T/C (compound 3.16 µM): 0.27% and 0.42% and 0.06%
- viability, T/C (compound 10 µM): 0.25% and 0.27% and 0.09%

- IC50 (curve of compound): > 10000 nM
Compound: COc1ncnc(C2CC2)c1-c1ncc2cnn(Cc3ccc(-c4nc(C(F)(F)F)cn4C(C)C)cc3)c2n1
- viability, T/C (compound 0.0316 µM): 116% (2×) and 103%
- viability, T/C (compound 0.1 µM): 88.7% and 102% and 106%
- viability, T/C (compound 0.316 µM): 105% and 113% and 124%
- viability, T/C (compound 1 µM): 85% and 107% and 113%
- viability, T/C (compound 3.16 µM): 116% and 114% and 132%
- viability, T/C (compound 10 µM): 124% and 108% and 134%

- IC50 (compound alone, run of 04/16/2024): 137 nM [middle of 11 runs]
Compound: Cc1cnc(CNC(=O)c2c(=O)c3ccc(N4CCCN(C)CC4)nc3n3c2sc2ccccc23)cn1
- viability, T/C (compound 0.0316 µM): 79.7% [middle of 12 runs]
- viability, T/C (compound 0.316 µM): 38.2% [middle of 12 runs]
- viability, T/C (compound 1 µM): 22.1% [middle of 12 runs]
- viability, T/C (compound 3.16 µM): 20.7% [middle of 12 runs]
- viability, T/C (compound 10 µM): 18.8% [middle of 12 runs]

- IC50 (curve of compound): 2100 nM and 2090 nM and 1920 nM
Compound: CC(C)(O)C1CCC(Nc2ccc3ncc(-c4cccc(C(F)(F)F)c4)n3n2)CC1 (stereo not given)
- viability, T/C (compound 0.0316 µM): 120% and 105% and 102%
- viability, T/C (compound 0.1 µM): 109% and 101% and 81.3%
- viability, T/C (compound 0.316 µM): 107% and 114% and 115%
- viability, T/C (compound 1 µM): 110% and 112% and 125%
- viability, T/C (compound 3.16 µM): 15.4% and 16.3% and 6.66%
- viability, T/C (compound 10 µM): 18.2% and 18% and 8.13%

From PubChem BioAssay AID2060495 (Molecular Pharmacology Branch, DTP, NCI, 2025)
